According to EP0463212A1, “Imidazo[2,1-b]thiazole compound anti-ulcer agent containing the same” (NIKKEN CHEMICALS CO., LTD., priority 1990, dated 1992):

Columns and labels:
ethanol-induced ulcer = assay: Antiulcer activity against ethanol-induced ulcer model; type: in vivo, Wistar strain male rats; settings: 100 mg/kg oral; for Ulcer index: 30 min before absolute ethanol 5 ml/kg oral, 1 hour after ethanol; for Inhibition rate: versus control group
Procedure: Antiulcer activity against ethanol-induced ulcer model
A suspension of each test compound in 5% gum arabic aqueous solution was orally given to Wistar strain male rats (at the age of 7 to 8 weeks, weighing 180 to 250 g; 5-9 rats in the group administered with the test compound; 4-9 rats in the control group) fasted for 24 hours at a dose of 100 mg of the test compound/5 ml/kg. Thirty minutes after administration, absolute ethanol was further orally administered at a dose of 5 mℓ/kg. One hour after administration of absolute ethanol, the stomach was excised under ethereal anesthesia and the area of an ulcerated portion (mm²) (using microscope) or the proportion (%) thereof to all area of gastric wall (by computer image analysis) were measured to determine an ulcer index and an inhibition rate.
(§1) In the control group, 5% gum arabic aqueous solution was orally administered at a dose of 5 ml/kg.

[1] = test system: water-immersion stress ulcer; assay: Antiulcer activity against water-immersion stress ulcer model; type: in vivo, Wistar strain male rats; settings: 100 mg/kg oral; for Ulcer index: 30 min before water immersion at 22 ± 1°C, stress load for 6 hours; for Inhibition rate: 30 min before water immersion stress for 6 hours, versus control group
Procedure: Antiulcer activity against water-immersion stress ulcer model
A suspension of each test compound in 5% gum arabic aqueous solution was orally given to Wistar strain male rats (at the age of 7 to 8 weeks, weighing 191 to 238 g; 7-8 rats in the group administered with the test compound; 14-16 rats in the control group) fasted for 24 hours at a dose of 100 mg of the test compound/5 ml/kg. Thirty minutes after administration, the animal was immersed up to the xiphisternum in water bath at 22 ± 1°C using a stress cage made by Tokyo University, Faculty of Pharmacology to apply a stress load for 6 hours. After applying the stress load, the rats had the cervical vertebra dislocated to death. Then, the stomach was excised and, spotted and linear erosion and a long diameter of ulcer were microscopically measured to determine an ulcer index and an inhibition rate.
as §1

aspirin-induced ulcer = assay: Antiulcer activity against aspirin-induced ulcer model; type: in vivo, Wistar strain male rats; settings: 100 mg/kg oral, 30 min before aspirin 200 mg/kg oral; for Ulcer index: stomach excised 7 hours after aspirin, rats fasted 24 hours; for Inhibition rate: versus control group
Procedure: Antiulcer activity against aspirin-induced ulcer model
A suspension of each test compound in 5% gum arabic aqueous solution was orally given to Wistar strain male rats (at the age of 7 to 8 weeks, weighing 180 to 227 g; 7-8 rats in the group administered with the test compound; 14-16 rats in the control group) fasted for 24 hours at a dose of 100 mg of the test compound/5 ml/kg. Thirty minutes after administration, aspirin was further orally administered at a dose of 200 mg/kg. Seven hours after administration of aspirin, stomach was excised under ethereal anesthesia and spotted and linear erosion and a long diameter of ulcer were microscopically measured to determine an ulcer index and an inhibition rate.
as §1

gastric juice secretion = assay: Gastric juice secretion inhibition activity (pyloric ligature); type: in vivo, Wistar strain male rats; settings: 100 mg/kg oral; for Gastric juice (pH) / Free HCℓ / Pepsin output / Total acidity: four hours after; for Free HCℓ: Töpfer reagent; for Pepsin output: casein as substrate; for Total acidity: phenolphthalein reagent; for Gastric juice: gastric juice collected four hours after
Procedure: Gastric juice secretion inhibition activity
A suspension of each test compound in 5% gum arabic aqueous solution was orally given to Wistar strain male rats (at the age of 7 to 8 weeks, weighing 192 to 241 g; 7-9 rats in the group administered with the test compound; 15 rats in the control group) fasted for 24 hours at a dose of 100 mg of the test compound/5 ml/kg. Thirty minutes after administration (the compounds of Examples 3 and 4) or 60 minutes after administration (the compounds of Examples 1, 2, 5, 6 and 7), pyloric ligature was made under ethereal anesthesia. Four hours after, the stomach was excised under ethereal anesthesia to collect gastric juice. The collected gastric juice was centrifuged (2500 rpm) at 4°C for 10 minutes. After the supernatant was collected, an amount of the gastric juice and its pH were measured using a pH meter. Furthermore, an amount of free hydrochloric acid and the total acidity were measured with Töpfer reagent and phenolphthalein reagent, respectively. Using a part of the gastric juice, pepsin output in the gastric juice was measured using casein as substrate in a manner similar to the method of Anson et al.
as §1

[2] = test system: SLC-ICR or SLC-ddy strain male mice; assay: Acute toxicity; type: in vivo; settings: oral, once, observed for 7 days
Procedure: A suspension of each test compound in 5% gum arabic aqueous solution was orally given to SLC-ICR or SLC-ddy strain male mice (at the age of 6 to 7 weeks, weighing 26.6 to 33.6 g; 3-8 mice in one group) forcedly once at a dose of 500 mg and 1,000mg of the test compound/5mℓ/kg. For 7 days after the administration, the mice were observed whether they were dead or alive.

[3] = proportion of ulcerated area to all area of gastric wall (computer image analysis)
[4] = pyloric ligature 60 minutes after administration
[5] = area of ulcerated portion (microscope)
[6] = pyloric ligature 30 minutes after administration

## COc1ccc(C(O)c2c(C)nc3sccn23)cc1OC (stereo not drawn) [Ex. 10, 5-{hydroxy-(3,4-dimethoxyphenyl)}-methyl-6-methyl-imidazo[2,1-b]thiazole]
ethanol-induced ulcer; [3]
  Ulcer index: 2.7 ± 0.9 %
ethanol-induced ulcer; from ulcer index in %
  Inhibition rate: 84.0%

## Cc1nc2sccn2c1C(C)O (stereo not drawn) [Ex. 5, 5-(1-hydroxyethyl)-6-methylimidazo[2,1-b]-thiazole]
[1]
  Ulcer index: 19.5 ± 5.8 mm
  Inhibition rate: 17.7%
aspirin-induced ulcer
  Ulcer index: 29.6 ± 6.8 mm
  Inhibition rate: 58.3%
Gastric juice secretion; [4]
  Gastric juice (pH): 1.48 ± 0.11 pH
  Free HCℓ: 68.4 ± 19.6 mcEq/100g
  Pepsin output: 16.6 ± 2.2 mg of tyrosine/100g
  Total acidity: 117.0 ± 20.8 mcEq/100g
  Gastric juice: 1.41 ± 0.15 mℓ/100g
[2]; 500 mg/kg
  Mortality rate (No. of death/No. of treated): 2/5
[2]; 1000 mg/kg
  Mortality rate (No. of death/No. of treated): 3/5

## CCCCc1sc2nc(C)c(C(O)c3ccccc3)n2c1C (stereo not drawn) [Ex. 7, 2-butyl-3,6-dimethyl-5-(hydroxy-phenyl)-methylimidazo[2,1-b]-thiazole]
[1]
  Ulcer index: 25.5 ± 5.5 mm
aspirin-induced ulcer
  Ulcer index: 65.1 ± 8.5 mm
  Inhibition rate: 8.2%
Gastric juice secretion; [4]
  Gastric juice (pH): 1.13 ± 0.03 pH
  Free HCℓ: 220.6 ± 32.5 mcEq/100g
  Pepsin output: 27.2 ± 2.3 mg of tyrosine/100g
  Total acidity: 260.5 ± 32.9 mcEq/100g
  Gastric juice: 2.91 ± 0.29 mℓ/100g
[2]; 500 mg/kg
  Mortality rate (No. of death/No. of treated): 0/5
[2]; 1000 mg/kg
  Mortality rate (No. of death/No. of treated): 0/5

## Cc1nc2scc(C)n2c1CO [Ex. 1, 3,6-dimethyl-5-hydroxymethylimidazo[2,1-b]thiazole]
[1]
  Ulcer index: 2.6 ± 0.9 mm
  Inhibition rate: 89.0%
aspirin-induced ulcer
  Ulcer index: 38.6 ± 7.9 mm
  Inhibition rate: 45.6%
Gastric juice secretion; [4]
  Gastric juice (pH): 2.02 ± 0.31 pH
  Free HCℓ: 33.9 ± 14.9 mcEq/100g
  Pepsin output: 12.0 ± 1.6 mg of tyrosine/100g
  Total acidity: 70.6 ± 17.4 mcEq/100g
  Gastric juice: 1.12 ± 0.18 mℓ/100g
[2]; 500 mg/kg
  Mortality rate (No. of death/No. of treated): 0/5
[2]; 1000 mg/kg
  Mortality rate (No. of death/No. of treated): 1/5

## CCCC(O)c1c(C)nc2sccn12 (stereo not drawn) [Ex. 4, 5-(1-hydroxybutyl)-6-methylimidazo[2,1-b]-thiazole]
[1]
  Ulcer index: 7.4 ± 1.5 mm
  Inhibition rate: 68.2%
aspirin-induced ulcer
  Ulcer index: 41.3 ± 3.8 mm
  Inhibition rate: 38.2%
ethanol-induced ulcer; [5]
  Ulcer index: 9.2 ± 3.1^** mm^2
ethanol-induced ulcer; from ulcer index in mm^2
  Inhibition rate: 94.2%
Gastric juice secretion; [6]
  Gastric juice (pH): 2.54 ± 0.27 pH
  Free HCℓ: 14.3 ± 7.4 mEq/l
  Pepsin output: 83.1 ± 19.4 units/hr
  Total acidity: 68.8 ± 3.6 mEq/l
  Gastric juice: 3.6 ± 0.8 mL
[2]; 500 mg/kg
  Mortality rate (No. of death/No. of treated): 3/8
[2]; 1000 mg/kg
  Mortality rate (No. of death/No. of treated): 5/5

## Cc1ccc(C(O)c2c(C)nc3sccn23)cc1 (stereo not drawn) [Ex. 9, 5-{hydroxy-(4-methylphenyl)}methyl-6-methylimidazo[2,1-b]thiazole]
ethanol-induced ulcer; [3]
  Ulcer index: 6.8 ± 1.5 %
ethanol-induced ulcer; from ulcer index in %
  Inhibition rate: 59.8%

## CCCCc1sc2nc(C)c(C(O)CCC)n2c1C (stereo not drawn) [Ex. 6, 2-butyl-3,6-dimethyl-5-(1-hydroxybutyl)-imidazo[2,1-b]thiazole]
[1]
  Ulcer index: 18.8 ± 4.7 mm
  Inhibition rate: 20.7%
aspirin-induced ulcer
  Ulcer index: 37.5 ± 7.4 mm
  Inhibition rate: 47.1%
Gastric juice secretion; [4]
  Gastric juice (pH): 1.36 ± 0.17 pH
  Free HCℓ: 132.7 ± 33.8 mcEq/100g
  Pepsin output: 21.6 ± 2.7 mg of tyrosine/100g
  Total acidity: 172.6 ± 36.5 mcEq/100g
  Gastric juice: 2.00 ± 0.27 mℓ/100g
[2]; 500 mg/kg
  Mortality rate (No. of death/No. of treated): 0/5
[2]; 1000 mg/kg
  Mortality rate (No. of death/No. of treated): 0/5

## Cc1nc2scc(C)n2c1C(O)c1ccc(F)cc1 (stereo not drawn) [Ex. 12, 3,6-dimethyl-5-{hydroxy-(4-fluorophenyl)}-methylimidazo[2,1-b]-thiazole]
ethanol-induced ulcer; [3]
  Ulcer index: 6.3 ± 1.3 %
ethanol-induced ulcer; from ulcer index in %
  Inhibition rate: 62.7%

## Cc1nc2sccn2c1C(O)c1ccccc1 (stereo not drawn) [Ex. 3, 5-(hydroxy-phenyl)-methyl-6-methyl-imidazo[2,1-b]thiazole]
[1]
  Ulcer index: 3.6 ± 2.0 mm
  Inhibition rate: 83.3%
aspirin-induced ulcer
  Ulcer index: 31.7 ± 5.9 mm
  Inhibition rate: 44.8%
Gastric juice secretion; [6]
  Gastric juice (pH): 1.66 ± 0.09 pH
  Free HCℓ: 35.1 ± 5.0 mEq/l
  Pepsin output: 157.7 ± 17.6 units/hr
  Total acidity: 66.6 ± 4.7 mEq/l
  Gastric juice: 6.4 ± 0.7 mL
[2]; 500 mg/kg
  Mortality rate (No. of death/No. of treated): 2/6
[2]; 1000 mg/kg
  Mortality rate (No. of death/No. of treated): 3/3

## CCCCc1sc2nc(C)c(CO)n2c1C [Ex. 2, 2-butyl-3,6-dimethyl-5-hydroxymethylimidazo[2,1-b]thiazole]
[1]
  Ulcer index: 13.3 ± 3.9 mm
  Inhibition rate: 43.9%
aspirin-induced ulcer
  Ulcer index: 52.7 ± 7.8 mm
  Inhibition rate: 25.7%
Gastric juice secretion; [4]
  Gastric juice (pH): 1.29 ± 0.08 pH
  Free HCℓ: 111.0 ± 36.3 mcEq/100g
  Pepsin output: 15.9 ± 2.1 mg of tyrosine/100g
  Total acidity: 147.2 ± 37.4 mcEq/100g
  Gastric juice: 1.63 ± 0.28 mℓ/100g
[2]; 500 mg/kg
  Mortality rate (No. of death/No. of treated): 0/5
[2]; 1000 mg/kg
  Mortality rate (No. of death/No. of treated): 0/5

## Cc1nc2scc(C)n2c1C(O)c1ccccc1 (stereo not drawn) [Ex. 8, 3,6-dimethyl-5-(hydroxy-phenyl)-methylimidazo[2,1-b]-thiazole]
[1]
  Ulcer index: 2.8 ± 0.5 mm
  Inhibition rate: 82.0%
ethanol-induced ulcer; [5]
  Ulcer index: 15.3 ± 8.5^** mm^2
ethanol-induced ulcer; from ulcer index in mm^2
  Inhibition rate: 82.2%

## Cc1nc2sccn2c1C(O)c1ccc(F)cc1 (stereo not drawn) [Ex. 11, 5-{hydroxy-(4-fluorophenyl)}methyl-6-methylimidazo[2,1-b]thiazole]
ethanol-induced ulcer; [3]
  Ulcer index: 1.2 ± 0.5 %
ethanol-induced ulcer; from ulcer index in %
  Inhibition rate: 92.9%
